Source: US4999372A, “New aminochromanol compounds” (ADIR et Compagnie, priority 1988, dated 1991)
Like-named read-outs stand apart in the source and are kept apart here.

Tests used:
[1] = tested on: anaesthetised dog; experiment: Haemodynamic study in the anaesthetised dog (vascular resistances), i.v.; format: in vivo
Procedure: A complete haemodynamic study was carried out on mongrel dogs weighing from 25 to 30 kg, which were anaesthetised with sodium pentobarbital 30 mg/kg i.v., intubated and ventilated and subjected to a thoracotomy at the 5th left intercostal space. The measurement of the […] is carried out using electromagnetic rings positioned at the level of the ascending aorta and the circumflex branch of the left coronary artery, respectively, and connected to GOULD SP 2202 electromagnetic flow meters. The aortic pressure is measured by a MILLAR probe introduced via the femoral artery.
The total peripheral vascular resistance values (TPR) and the mean coronary vascular resistance values (CVRM) are calculated by the ratio between the mean aortic pressure and the mean cardiac output and the mean coronary output, respectively. The products tested were injected via the femoral vein in a form dissolved in water or a suitable solvent.
The evolution of the vascular resistances, expressed as percentage variation with respect to the control values, is presented as a function of time in the following Table.

[2] = tested on: conscious renally hypertensive dog; experiment: Arterial pressure in the conscious renally hypertensive dog; format: in vivo; conditions: gastric intubation, 0.1 mg/kg
Procedure: Mongrel dogs weighing from 20 to 25 kg are used. A silastic catheter positioned under anaesthesia (sodium pentobarbital 30 mg/kg i.v.) at the level of the abdominal aorta and left over a prolonged period permits the later measurement of the arterial pressure in the conscious animals. Arterial hypertension is induced by a second intervention under anaesthesia consisting in a constriction of the left renal artery using a clip, which reduces its rate of flow by approximately 70%, the left kidney is enveloped in a latex capsule and the contralateral kidney is left in place.
The systolic and diastolic arterial pressures (PAS and PAD) are measured using a STATHAM P23 pressure sensor connected to the silastic catheter and linked to a GOULD pressure amplifier. The products are tested on the animals, which have become hypertensive, in the conscious state, at least one week after the second intervention. The arterial pressure is monitored continuously on an ES1000 GOULD recorder until 7 hours have elapsed after the treatment and then until 24 hours have elapsed.
The products to be tested are administered via the digestive system, after gastric intubation, in a form dissolved in water or a suitable solvent. The doses administered are expressed in mg of base with respect to body weight.
The representative products of the invention were compared with the reference product (CROMAKALIM). The variations in the systolic and diastolic arterial pressures (PAS and PAD), presented at the most significant times after treatment, are expressed as percentage variation with respect to the control values.

[3] = tested on: aorta of the rat; experiment: Relaxation of rat aortic rings contracted by potassium depolarisation (KCl); format: cell-based; conditions: rat aorta rings without endothelium
Procedure: (§1) Male Wistar rats (325-375 g) are anaesthetised i.p. using sodium pentobarbital (30 mg/kg). The thoracic aorta and the mesenteric portal vein are removed. The aorta is dissected into rings 3 mm long and the endothelium is removed mechanically.
(§2) The organs are placed in a 20 ml thermostatically controlled vessel containing a physiological solution composed of (mM): NaCl 112; KCl 5; KH2 PO4 1; MgSO4 1.2; CaCl2 2.5; NaHCO3 25; glucose 11.5; EDTA 0.1; pH: 7.4; 37° C.; 95% O2 +5% CO2.
(§3) The initial force applied is 2 g in the case of the aorta and 0.5 g in the case of the portal vein. The variations in force are measured by a STATHAM sensor connected to a transducer amplifier (GOULD) and are monitored continuously on a GOULD 2400 graphic recorder.
(§4) The experimental protocols are as follows: After a stabilisation period of 90 minutes, the aortic rings are subjected to various tests:
potassium depolarisation:
The preparations are exposed to a 30 mM or 80 mM KCl (and 87 and 37 mM NaCl, respectively) hyperpotassium medium; after 30 minutes' stabilisation of contraction, cumulative concentrations of the product to be tested are added every 15 minutes. The relaxation values obtained allow the IC50 s to be calculated.
(§5) The products are used in a form dissolved in water or a suitable solvent.
(§6) The concentrations expressed refer to the final concentrations in terms of base in the isolated organ baths.

[4] = tested on: aorta of the rat; experiment: Reactivity of rat aortic rings to 4-aminopyridine (4 AP); format: cell-based; conditions: 4 AP 5 mM
Procedure: as §1, §2, §3, §4
reactivity to 4-aminopyridine (4 AP)
The product to be tested, at a given concentration, or its solvent, is incubated in the normal physiological solution 15 minutes before the addition of the 4 AP (5 mM).
The maximum amplitudes of the responses to the 4 AP in the presence of the product or the solvent are compared.
as §5, §6

[5] = tested on: spontaneously hypertensive rat (SHR); experiment: Arterial pressure in the conscious spontaneously hypertensive rat (SHR), oral; format: in vivo
Procedure: The study is carried out on SHR male rats (Charles River) weighing from 260 g to 330 g and aged from 18 to 20 weeks. A polyethylene catheter is positioned at the level of the abdominal aorta and tunnelised at the level of the neck under anaesthesia (ketamine hydrochloride 150 mg/kg intraperitoneally). The animals, placed in movement-restraining cages, are tested in the conscious state at least 48 hours after intervention. The arterial pressure, measured by a STATHAM P23 pressure sensor connected to the abdominal catheter, is registered on a GOULD 2400 recorder. […] The doses administered are expressed in mg/kg of base.
The results obtained with a certain number of representative products of the invention and a reference product, CROMAKALIM, are grouped in the following Table. The variations in systolic and diastolic arterial pressure (PAS and PAD) presented at the most significant times after treatment are expressed as percentage variation with respect to the control values.

[6] = Rattus norvegicus, 80 mM KCl, read-out: IC50 (M) KCl 80 mM

`CC1(C)Oc2ccc(C#N)cc2[C@@H](N2CCCC2=O)[C@@H]1O` (relative stereo) [CROMAKALIM, reference compound] was tested, and the “Variation (%) of CVRM after treatment” value ([1]; 10 μg/kg, 1 min) was -69.0%, the “Variation (%) of TPR after treatment” value ([1]; 10 μg/kg, 1 min) was -26.8% and the “Variation (%) of CVRM after treatment” value ([1]; 10 μg/kg, 10 min) was -38.1%. For the same compound, the “Variation (%) of TPR after treatment” value ([1]; 10 μg/kg, 10 min) was -15.5%, the “Variation (%) of CVRM after treatment” value ([1]; 10 μg/kg, 30 min) was -27.4% and the “Variation (%) of TPR after treatment” value ([1]; 10 μg/kg, 30 min) was -7.8%. For the same compound, the “Variation (%) of PAD after treatment” value ([2]; 1 H) was -23%, the “Variation (%) of PAS after treatment” value ([2]; 1 H) was -26% and the “Variation (%) of PAD after treatment” value ([2]; 3 H) was -9%. The “Variation (%) of PAS after treatment” value ([2]; 3 H) was -9%, the “Variation (%) of PAD after treatment” value ([2]; 7 H) was -5% and the “Variation (%) of PAS after treatment” value ([2]; 7 H) was “+2%”. The “Variation (%) of PAD after treatment” value ([2]; 24 H) was “+18%”, the “Variation (%) of PAS after treatment” value ([2]; 24 H) was “+9%” and the “Variation (%) of PAD after treatment” value ([2]; 30 min) was -46%. The “Variation (%) of PAS after treatment” value ([2]; 30 min) was -50%, the IC50 ([3]; Rattus norvegicus, 30 mM KCl, read-out: IC50 (M) KCl 30 mM) was 4.2e-07 M and the IC50 [3, 6] was over 0.0001 M. For the same compound, the “% inhibition of the response to 4AP” value ([4]; product 10^-5 M) was 74%, the “% inhibition of the response to 4AP” value ([4]; product 10^-7 M) was 13% and the “Variation (%) of PAD after treatment” value ([5]; 0.3 mg/kg, 1 H) was -26 ± 3%. The “Variation (%) of PAS after treatment” value ([5]; 0.3 mg/kg, 1 H) was -21 ± 3%, the “Variation (%) of PAD after treatment” value ([5]; 0.3 mg/kg, 3 H) was -7 ± 5% and the “Variation (%) of PAS after treatment” value ([5]; 0.3 mg/kg, 3 H) was -5 ± 4%. For the same compound, the “Variation (%) of PAD after treatment” value ([5]; 0.3 mg/kg, 6 H) was -3 ± 1%, the “Variation (%) of PAS after treatment” value ([5]; 0.3 mg/kg, 6 H) was -1 ± 2% and the “Variation (%) of PAD after treatment” value ([5]; 0.3 mg/kg, 30 min) was -34 ± 2%. For the same compound, the “Variation (%) of PAS after treatment” value ([5]; 0.3 mg/kg, 30 min) was -29 ± 2%, the “Variation (%) of PAD after treatment” value ([5]; 1.0 mg/kg, 1 H) was -33 ± 3% and the “Variation (%) of PAS after treatment” value ([5]; 1.0 mg/kg, 1 H) was -23 ± 4%. For the same compound, the “Variation (%) of PAD after treatment” value ([5]; 1.0 mg/kg, 3 H) was -25 ± 4%, the “Variation (%) of PAS after treatment” value ([5]; 1.0 mg/kg, 3 H) was -19 ± 3% and the “Variation (%) of PAD after treatment” value ([5]; 1.0 mg/kg, 6 H) was -20 ± 2%. The “Variation (%) of PAS after treatment” value ([5]; 1.0 mg/kg, 6 H) was -15 ± 2%, the “Variation (%) of PAD after treatment” value ([5]; 1.0 mg/kg, 30 min) was -44 ± 4% and the “Variation (%) of PAS after treatment” value ([5]; 1.0 mg/kg, 30 min) was -34 ± 5%.
With `CC1(C)Oc2ccc(C#N)cc2C(N2C(=O)CC[C@H]2CO)C1O` (single isomer, unassigned) [Example 1 form A, 3R,4S- or 3S,4R-trans-2,2-dimethyl-3-hydroxy-4-(2-oxo-5S-hydroxymethyl-1-pyrrolidinyl)-6-cyanochroman] the “Variation (%) of CVRM after treatment” value ([1]; 300 μg/kg, 1 min) was -81.5%, the “Variation (%) of TPR after treatment” value ([1]; 300 μg/kg, 1 min) was -41.9% and the “Variation (%) of CVRM after treatment” value ([1]; 300 μg/kg, 10 min) was -50.3%. For the same compound, the “Variation (%) of TPR after treatment” value ([1]; 300 μg/kg, 10 min) was -17.2%, the “Variation (%) of CVRM after treatment” value ([1]; 300 μg/kg, 30 min) was -34.9% and the “Variation (%) of TPR after treatment” value ([1]; 300 μg/kg, 30 min) was -12.9%. For the same compound, the IC50 [3, 6] was over 0.0001 M, the IC50 ([3]; 30 mM KCl, listed as Ex. 1 Form A, read-out: IC50 (M) KCl 30 mM) was 7.7e-06 M and the “% inhibition of the response to 4AP” value ([4]; product 10^-5 M, listed as Ex. 1 Form A) was 35%.
